Test results taken from patent US8563543B2, “Iminothiadiazine dioxide compounds as bace inhibitors, compositions, and their use” (Merck Sharp & Dohme Corp., priority 2009, dated 2013).
“And” between values parts separate entries of the source, which are not always exact repeats. Identical values can stand only once.

What was measured:
[1] = Solution stability (hydrolysis) by LC/MS in pH 7.4 phosphate buffer; assay type: physicochemical; conditions: for hydrolysis: 25° C. over 6 days; for hydrolysis / hydrolysis product share of the sample: pH 7.4
Description: The following procedures were used to measure solution stability, and to compare the solution stability of the compounds of the invention to that of otherwise structurally identical iminopyrimidinones.
Stock solutions of the tested compounds were prepared by dissolving about 3 mg of each compound in 3 mL of acetonitrile. Standards for test compounds were prepared by diluting 1 mL of the stock solution with an additional 4 mL of acetonitrile. These standards were stored at 4° C. Samples were prepared by diluting 1 mL of the stock solution with 4 mL of 50 mM pH 7.4 phosphate buffer. These samples were stored at the appropriate temperature in the absence of light. Standards and samples were analyzed by LC/MS initially and at day 1, day 4, and day 6. • HPLC Conditions: • Mobile phase A: 10 mM pH 5 ammonium acetate buffer:methanol (90:10) • Mobile phase B: 10 mM pH 5 ammonium acetate buffer:methanol (10:90) • Column: Zorbax SB-Phenyl 4.6×50 mm, 1.8 μm • Column temperature: 40° C. • Flow: 0.8 mL/min. • Gradient:
• Detectors: UV at 220 nm and 236 nm • MS, ES ionization, positive mode, for identification only at final time point. • The terms reported in the tables below have the following meanings: • Area % is the integration of peak from HPLC as reported by Waters Empower II software. • RRT is the relative retention time of new product compared to the standard of the test compound. • Formula for RRT is:
[formula] • M+1 is the mass observed including protonation (+1 mass unit). • ND stands for no peak detected by the UV detector. • * stands for no ion detected by the mass spectrometer.

[2] = target: soluble human BACE1 catalytic domain (Homo sapiens, UniProt P56817); test: BACE1 HTRF FRET assay; assay type: biochemical; conditions: calculated from IC50 using the Cheng-Prusoff equation
Chain of soluble human BACE1 catalytic domain (P56817 75-416 limits assumed): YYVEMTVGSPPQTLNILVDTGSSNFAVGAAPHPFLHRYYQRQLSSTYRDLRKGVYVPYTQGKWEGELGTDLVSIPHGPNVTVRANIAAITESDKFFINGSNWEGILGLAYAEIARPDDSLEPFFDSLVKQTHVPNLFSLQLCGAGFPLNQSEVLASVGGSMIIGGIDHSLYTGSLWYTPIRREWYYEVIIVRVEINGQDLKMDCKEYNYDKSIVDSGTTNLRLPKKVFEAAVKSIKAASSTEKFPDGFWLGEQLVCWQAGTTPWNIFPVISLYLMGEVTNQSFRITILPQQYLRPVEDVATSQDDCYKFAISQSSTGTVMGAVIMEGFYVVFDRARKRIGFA
From the text: Dimethyl Sulfoxide (DMSO)
Recombinant human soluble BACE1 catalytic domain (>95% pure)
APP Swedish mutant peptide substrate (QSY7-APP^swe-Eu): QSY7-[…]-Europium-amide
A homogeneous time-resolved FRET assay was used to determine IC50 values for inhibitors of the soluble human BACE1 catalytic domain. This assay monitored the increase of 620 nm fluorescence that resulted from BACE1 cleavage of an APPswedish APP^swe mutant peptide FRET substrate (QSY7-[…]-Europium-amide). This substrate contained an N-terminal QSY7 moiety that served as a quencher of the C-terminal Europium fluorophore (620 nm Em). In the absence of enzyme activity, 620 nm fluorescence was low in the assay and increased linearly over 3 hours in the presence of uninhibited BACE1 enzyme. Inhibition of BACE1 cleavage of the QSY7-APP^swe-Eu substrate by inhibitors was manifested as a suppression of 620 nm fluorescence.
Varying concentrations of inhibitors at 3× the final desired concentration in a volume of 10 ul were preincubated with purified human BACE1 catalytic domain (3 nM in 10 μl) for 30 minutes at 30° C. in reaction buffer containing 20 mM Na-Acetate pH 5.0, 10% glycerol, 0.1% Brij-35 and 7.5% DSMO. […] The 620 nm fluorescence was then read on a Rubystar HTRF plate reader (BMG Labtechnologies) using a 50 μs delay followed by a 400 millisecond acquisition time window. […]

[3] = target: T1, purified human autoBACE-2 (Homo sapiens, UniProt Q9Y5Z0); test: BACE-2 time-resolved endpoint proteolysis assay (BACE-HTRF assay); assay type: biochemical; conditions: calculated from IC50 using the Cheng-Prusoff equation
T1 sequence (Q9Y5Z0 63-473 limits assumed): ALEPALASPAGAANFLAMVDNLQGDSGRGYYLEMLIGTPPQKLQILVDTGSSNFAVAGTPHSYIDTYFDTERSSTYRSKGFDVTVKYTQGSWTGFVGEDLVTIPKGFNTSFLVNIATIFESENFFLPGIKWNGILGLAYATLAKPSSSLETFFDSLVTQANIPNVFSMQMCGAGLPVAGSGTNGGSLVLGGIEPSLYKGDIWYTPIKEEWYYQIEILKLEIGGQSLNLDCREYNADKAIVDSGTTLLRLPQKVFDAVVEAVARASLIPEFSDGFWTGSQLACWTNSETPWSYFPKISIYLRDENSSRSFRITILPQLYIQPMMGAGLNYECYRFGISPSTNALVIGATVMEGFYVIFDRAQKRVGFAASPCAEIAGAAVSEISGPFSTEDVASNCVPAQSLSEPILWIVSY
Description: Inhibitor IC50 values at purified human autoBACE-2 were determined in a time-resolved endpoint proteolysis assay that measures hydrolysis of the QSY7-[…]-Eu-amide FRET peptide substrate (BACE-HTRF assay). RACE-mediated hydrolysis of this peptide results in an increase in relative fluorescence (RFU) at 620 nm after excitation with 320 nm light. Inhibitor compounds, prepared at 3× the desired final concentration in 1×BACE assay buffer (20 mM sodium acetate pH 5.0, 10% glycerol, 0.1% Brij-35) supplemented with 7.5% DMSO were pre-incubated with an equal volume of autoBACE-2 enzyme diluted in 1×RACE assay buffer (final enzyme concentration 1 nM) in black 384-well NUNC plates for 30 minutes at 30° C. […] DMSO was present at 5% final concentration in the assay. Following laser excitation of sample wells at 320 nm, the fluorescence signal at 620 nm was collected for 400 ms following a 50 μs delay on a RUBYstar HTRF plate reader (BMG Labtechnologies). Raw RFU data was normalized to maximum (1.0 nM RACE/DMSO) and minimum (no enzyme/DMSO)RFU values. IC50 values were determined by nonlinear regression analysis (sigmoidal dose response, variable slope) of percent inhibition data with minimum and maximum values set to 0 and 100 percent respectively. Similar IC50 values were obtained when using raw RFU data. The Ki values were calculated from the IC50 using the Cheng-Prusoff equation.

[4] = Sample at pH 7.4, 25° C., Day 1
[5] = Sample at pH 7.4, 25° C., Day 4
[6] = Sample at pH 7.4, 25° C., Day 6
[7] = Sample at pH 7.4, 25° C., Initial
[8] = Sample initial, 40° C. and 60° C. studies
[9] = Standard in acetonitrile, stored at 4° C., Day 1
[10] = Standard in acetonitrile, stored at 4° C., Day 4
[11] = Standard in acetonitrile, stored at 4° C., Day 6
[12] = Standard in acetonitrile, stored at 4° C., Initial

hydrolysis [1]	hydrolysis product share of the sample ([1]; 40° C. over 4 days)	hydrolysis product share of the sample ([1]; 60° C.)	Area %, Day 1 (parent peak) [1, 4] [%]	Area %, Day 4 (parent peak) [1, 5] [%]	Area %, Day 6 (parent peak) [1, 6] [%]	Area %, Initial (parent peak) [1, 7] [%]	Area %, Initial (parent peak) [1, 8] [%]	Area %, Day 1 (parent peak) [1, 9]	Area %, Day 4 (parent peak) [1, 10] [%]	Area %, Day 6 (parent peak) [1, 11] [%]	Area %, Initial (parent peak) [1, 12]	Area %, Day 1 (parent peak) ([1]; pH 7.4 at 40° C., Day 1) [%]	Area %, Day 4 (parent peak) ([1]; pH 7.4 at 40° C., Day 4) [%]	Compound	further results
3.36%	31.4%	28.5%	100.0	100.0	89.79	100.0	98.2	100.0% and 99.4%	100.0	100.0	100.0% and 98.8%	86.3	55.8	CN1C(=N)N[C@](C)(c2ccc(F)cc2F)[C@@H](c2ccc(C(F)(F)F)cc2)C1=O [Compound Y]	Area %, Day 6 (hydrolysis product peak) [1, 6]: 3.36%; Area %, Initial (hydrolysis product peak) [1, 8]: 0.7%; Area %, Day 1 (hydrolysis product peak) ([1]; pH 7.4 at 40° C., Day 1): 10.5%; Area %, Day 4 (hydrolysis product peak) ([1]; pH 7.4 at 40° C., Day 4): 31.4%; Area %, Day 4 (unidentified peak, RRT 0.87) ([1]; pH 7.4 at 40° C., Day 4, no ion detected by the mass spectrometer): 5.8%; Area %, Day 1 (hydrolysis product peak) ([1]; pH 7.4 at 60° C., Day 1): 28.5%; Area %, Day 1 (parent peak) ([1]; pH 7.4 at 60° C., Day 1): 56.7%; Area %, Day 1 (unidentified peak, RRT 0.87) ([1]; pH 7.4 at 60° C., Day 1, no ion detected by the mass spectrometer): 6.6%
no hydrolysis	no hydrolysis	no hydrolysis	100.0	100.0	100.0	100.0	100.0	100.0%	100.0	100.0	100.0%	100.0	100.0	CN1C(=N)N[C@](C)(c2ccc(F)cc2F)[C@@H](c2ccc(C(F)(F)F)cc2)S1(=O)=O [Example 3]	Ki [2]: ~9 nM; Ki [3]: ~11 nM; Area %, Day 4 (parent peak) ([1]; pH 7.4 at 60° C., Day 4): 87.3%; Area %, Day 4 (unidentified peak, RRT 0.52) ([1]; pH 7.4 at 60° C., Day 4, no ion detected by the mass spectrometer): 12.7%
